According to ChEMBL document CHEMBL4346735, “Discovery and pharmacological evaluation of indole derivatives as potent and selective RORγt inverse agonist for multiple autoimmune conditions” (Bioorg Med Chem Lett, 2019):
Active and inactive are the calls of the source. The calls are words filed in the database; no cut-off is given here.

Columns and labels:
[1] = target: Cytochrome P450 2C19 (Homo sapiens, UniProt P33261); assay: Inhibition of CYP2C19 in human liver microsomes using (S)-mephenytoin as substrate preincubated for 5 mins followed by NADPH addition measured after 40 mins by LC-MS/MS analysis
Chain of Cytochrome P450 2C19 (P33261 whole entry): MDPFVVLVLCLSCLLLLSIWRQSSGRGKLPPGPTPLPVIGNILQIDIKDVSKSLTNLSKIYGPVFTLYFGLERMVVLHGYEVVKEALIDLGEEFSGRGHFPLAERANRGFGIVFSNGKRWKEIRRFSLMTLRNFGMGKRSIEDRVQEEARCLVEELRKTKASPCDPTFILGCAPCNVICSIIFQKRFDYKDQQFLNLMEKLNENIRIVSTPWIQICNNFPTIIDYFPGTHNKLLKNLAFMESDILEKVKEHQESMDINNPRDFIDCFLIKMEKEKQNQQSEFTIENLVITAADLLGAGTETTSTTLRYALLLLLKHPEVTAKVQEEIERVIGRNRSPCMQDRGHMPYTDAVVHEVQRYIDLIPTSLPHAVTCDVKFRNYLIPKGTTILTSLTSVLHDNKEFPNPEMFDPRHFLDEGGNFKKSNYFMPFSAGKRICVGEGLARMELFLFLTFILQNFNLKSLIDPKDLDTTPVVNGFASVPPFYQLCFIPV

[2] = Metabolic stability in mouse liver microsomes assessed as parent compound remaining at 1 uM preincubated for 5 mins followed by NADPH addition after 30 mins by LC-MS/MS analysis; format: ADME, Microsome; conditions: read-out: Stability
[3] = Tmax in mouse at 10 mg/kg, po; format: ADME, organism-based; conditions: in vivo
[4] = AUC (0 to 24 hrs) in mouse at 10 mg/kg, po; format: ADME, organism-based; parameters: dose 10 mg/kg, time < 24 hr, route oral; conditions: in vivo, 24 h
[5] = species: Mus musculus; conditions: C57BL/6J, at 10 mg/kg
Description: Immunosuppressive activity in MOG (35 to 55 residues)/pertussis toxin-induced experimental allergic encephalomyelitis C57BL/6J mouse model assessed as reduction in IL-17 production of CNS infiltrating CD4+ Th17 cells at 10 mg/kg, po qd by intracellular staining method

[6] = target: Cytochrome P450 2C9 (Homo sapiens, UniProt P11712); assay: Inhibition of CYP2C9 in human liver microsomes using diclofenac as substrate preincubated for 5 mins followed by NADPH addition measured after 10 mins by LC-MS/MS analysis
Chain of Cytochrome P450 2C9 (P11712 whole entry): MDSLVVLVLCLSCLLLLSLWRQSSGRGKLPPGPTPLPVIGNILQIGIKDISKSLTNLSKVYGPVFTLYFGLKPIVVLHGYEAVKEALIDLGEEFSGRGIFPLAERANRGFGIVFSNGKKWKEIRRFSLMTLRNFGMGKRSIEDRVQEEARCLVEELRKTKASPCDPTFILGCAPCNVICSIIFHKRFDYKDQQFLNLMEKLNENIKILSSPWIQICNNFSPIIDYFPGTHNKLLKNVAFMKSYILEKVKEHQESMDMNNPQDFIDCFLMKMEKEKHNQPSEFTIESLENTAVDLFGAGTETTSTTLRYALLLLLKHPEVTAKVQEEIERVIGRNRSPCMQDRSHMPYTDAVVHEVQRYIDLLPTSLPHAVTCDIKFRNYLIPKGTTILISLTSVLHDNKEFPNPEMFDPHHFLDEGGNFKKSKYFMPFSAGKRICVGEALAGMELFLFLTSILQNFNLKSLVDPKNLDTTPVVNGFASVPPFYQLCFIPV

[7] = target: T1, Cytochrome P450 1A2 (Homo sapiens, UniProt P05177); assay: Inhibition of CYP1A2 in human liver microsomes using phenacetin as substrate preincubated for 5 mins followed by NADPH addition measured after 10 mins by LC-MS/MS analysis
T1 sequence (P05177 whole entry): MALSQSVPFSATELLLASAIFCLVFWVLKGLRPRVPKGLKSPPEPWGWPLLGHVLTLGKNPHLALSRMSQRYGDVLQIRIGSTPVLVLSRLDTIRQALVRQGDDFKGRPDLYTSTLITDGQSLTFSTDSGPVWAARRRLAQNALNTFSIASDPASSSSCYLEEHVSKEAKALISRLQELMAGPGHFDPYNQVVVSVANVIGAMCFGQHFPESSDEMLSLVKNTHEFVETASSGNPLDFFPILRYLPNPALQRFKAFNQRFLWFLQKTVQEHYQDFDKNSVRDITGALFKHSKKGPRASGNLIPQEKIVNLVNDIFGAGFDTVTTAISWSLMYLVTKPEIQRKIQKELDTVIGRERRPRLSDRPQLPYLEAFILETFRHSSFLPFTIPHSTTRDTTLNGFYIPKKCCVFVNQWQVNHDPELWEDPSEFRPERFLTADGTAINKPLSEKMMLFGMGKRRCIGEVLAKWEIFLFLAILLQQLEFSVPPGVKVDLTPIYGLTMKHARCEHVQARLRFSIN

[8] = Half life in mouse at 3 mg/kg, iv; format: ADME, organism-based; conditions: in vivo
[9] = test system: Mus musculus; assay: Immunosuppressive activity in MOG (35 to 55 residues)/pertussis toxin-induced experimental allergic encephalomyelitis C57BL/6J mouse model assessed as IFN-gamma production of CNS infiltrating CD4+ Th1 cells at 10 mg/kg, po qd by intracellular staining method; format: functional, organism-based
[10] = test system: Mus musculus; assay: Immunosuppressive activity in MOG (35 to 55 residues)/pertussis toxin-induced experimental allergic encephalomyelitis C57BL/6J mouse model assessed as decrease in ratio of Th17:Th1 at 10 mg/kg, po qd by intracellular staining method; format: functional, organism-based
[11] = Cmax in mouse at 10 mg/kg, po; format: ADME, organism-based; parameters: dose 10 mg/kg, route oral; conditions: in vivo
[12] = Metabolic stability in human liver microsomes assessed as parent compound remaining at 1 uM preincubated for 5 mins followed by NADPH addition after 30 mins by LC-MS/MS analysis; format: ADME, Microsome; conditions: read-out: Stability
[13] = target: Cytochrome P450 3A4 (Homo sapiens, UniProt P08684); assay: Inhibition of CYP3A4 in human liver microsomes using testosterone as substrate preincubated for 5 mins followed by NADPH addition measured after 10 mins by LC-MS/MS analysis
Chain of Cytochrome P450 3A4 (P08684 whole entry): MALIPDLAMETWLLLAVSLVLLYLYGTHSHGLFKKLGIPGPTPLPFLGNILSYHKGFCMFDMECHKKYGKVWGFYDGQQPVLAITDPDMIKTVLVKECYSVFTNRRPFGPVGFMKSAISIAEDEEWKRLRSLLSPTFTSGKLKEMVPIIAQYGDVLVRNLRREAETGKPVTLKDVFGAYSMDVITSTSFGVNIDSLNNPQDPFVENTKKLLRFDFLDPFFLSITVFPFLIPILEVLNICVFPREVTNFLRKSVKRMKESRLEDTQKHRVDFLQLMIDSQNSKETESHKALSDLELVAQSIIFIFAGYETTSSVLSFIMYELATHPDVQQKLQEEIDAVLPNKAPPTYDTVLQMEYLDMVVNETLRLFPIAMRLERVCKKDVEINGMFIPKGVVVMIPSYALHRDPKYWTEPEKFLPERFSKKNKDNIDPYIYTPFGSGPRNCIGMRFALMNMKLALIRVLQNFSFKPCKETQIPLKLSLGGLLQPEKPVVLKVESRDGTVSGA

[14] = Oral bioavailability in mouse at 10 mg/kg; format: ADME, organism-based; conditions: in vivo
[15] = Volume of distribution at steady state in mouse at 3 mg/kg, iv; format: ADME, organism-based; conditions: in vivo, read-out: Vdss
[16] = Metabolic stability in rat liver microsomes assessed as parent compound remaining at 1 uM preincubated for 5 mins followed by NADPH addition after 30 mins by LC-MS/MS analysis; format: ADME, Microsome; conditions: read-out: Stability
[17] = test system: Mus musculus; assay: Immunosuppressive activity in MOG (35 to 55 residues)/pertussis toxin-induced experimental allergic encephalomyelitis C57BL/6J mouse model assessed as reduction in disease severity score at 10 mg/kg, po qd measured at day 21 relative to dexamethasone; format: functional; conditions: 504 h

Work on `CCS(=O)(=O)c1ccc(CC(=O)Nc2cc(Cl)c(-c3ccccc3OC(F)(F)F)c(Cl)c2)cc1` yielded an IC50 [1] of 9.6 µM, a remaining at 0.5 h, 1 µM [2] of 70% and a Tmax [3] of 2 h. For the same compound, the AUC [4] was 22.3 µM·h, the inhibition [5] was “Active” and the IC50 [6] was 2.1 µM. For the same compound, the IC50 [7] was > 50 µM, the half-life [8] was 10.7 h and the inhibition [9] was “inactive”. The inhibition [10] was “Active”, the Cmax [11] was 3000 nM and the remaining at 0.5 h, 1 µM [12] was 100%. The IC50 [13] was > 50 µM, the F [14] was 79% and the Vd [15] was 3.5 L/kg. For the same compound, the remaining at 0.5 h, 1 µM [16] was 65% and the inhibition in vivo at 10 mg/kg [17] was 24%.
